Measured values published in publication PMC10890502, “Prevention of Protease-Induced Degradation of Desmoplakin via Small Molecule Binding” (Journal of Personalized Medicine, 2024).
Substitutions are numbered along the chain they refer to. Where a name gives a salt, the structure may show the parent alone. Read-outs that look alike come from different tables or passages of the source.

How the values were obtained:
Assay in all cases: biochemical
[1] = target: T1, sDSP (DSP178–627) (Homo sapiens, UniProt P15924, R451G); set-up: FITC-sDSP degradation by calpain (1:20), fluorescence polarization after 60 min, per cent of calpain-only control; conditions: degradation rate of DSP R451G by calpain; read-out: % of control remaining
T1 construct: gene DSP; N-terminal spectrin repeat/SH3 fragment, residues 178-627; pGEX-1 GST fusion cut with thrombin, E. coli BL21(DE3); fluorescein-5-maleimide label on exposed cysteines (C405, C524)
T1 sequence (P15924 178-627 R451G): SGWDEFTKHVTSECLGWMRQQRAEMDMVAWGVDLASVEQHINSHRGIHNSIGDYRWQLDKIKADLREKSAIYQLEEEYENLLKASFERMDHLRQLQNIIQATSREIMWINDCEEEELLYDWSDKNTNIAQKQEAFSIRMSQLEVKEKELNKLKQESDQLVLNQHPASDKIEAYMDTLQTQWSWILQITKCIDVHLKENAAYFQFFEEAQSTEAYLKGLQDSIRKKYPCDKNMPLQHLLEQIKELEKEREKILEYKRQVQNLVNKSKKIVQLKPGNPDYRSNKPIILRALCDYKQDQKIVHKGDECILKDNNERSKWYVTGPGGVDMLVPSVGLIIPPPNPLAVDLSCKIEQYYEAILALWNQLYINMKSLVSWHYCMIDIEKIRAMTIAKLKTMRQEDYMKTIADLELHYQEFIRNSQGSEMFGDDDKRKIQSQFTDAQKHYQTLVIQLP
Method: (§1) Fluorescence Polarization (FP) assays were conducted in […] format using a BioTek Synergy H4 plate reader with polarization capacity (Agilent; Savage, MD, USA). All samples were run at 25 °C using PBS pH 7.4, 1 mM DTT, 10 mM CaCl2, 5% DMSO, and […] FITC- DSP178–627, with 500 μM of each drug. Trypsin, chymotrypsin, or calpain at either 1:50, 1:50, or 1:20 concentration was added directly before data collection with an average void time of 2 min. Control experiments in each plate were conducted in triplicate and consisted of DSP178–627 + DMSO + protease as a positive control and DSP178–627 + DMSO + [compound left out] + protease as a negative control. Only plates that had functional positive and negative controls were used in data analysis. Samples were excited at 485 nm, and polarization was monitored at 528 nm. Data were collected at 5 min increments for 1–3 h. […] Therefore, we next tested whether these 62 compounds also prevent wildtype and variant DSP degradation in the presence of calpain. […] (A) Normalized fluorescent polarization of WT and sDSP variants in the presence of a 1:20 ratio of calpain plus 500 μM drug, as compared to calpain alone (black) (B) Identity and chemical structure of the six best-performing compounds.

[2] = target: T2, sDSP S507F (Homo sapiens, UniProt P15924, S507F); set-up: FITC-sDSP degradation by calpain (1:20), fluorescence polarization after 60 min, per cent of calpain-only control; conditions: degradation rate of DSP S507F by calpain; read-out: % of control remaining
T2 construct: gene DSP; N-terminal fragment, residues 178-627
Method: as §1

[3] = target: T3, sDSP (DSP178–627) (Homo sapiens, UniProt P15924, S442F); set-up: FITC-sDSP degradation by calpain (1:20), fluorescence polarization after 60 min, per cent of calpain-only control; conditions: degradation rate of DSP S442F by calpain; read-out: % of control remaining
T3 construct: gene DSP; N-terminal spectrin repeat/SH3 fragment, residues 178-627; pGEX-1 GST fusion cut with thrombin, E. coli BL21(DE3); fluorescein-5-maleimide label on exposed cysteines (C405, C524)
T3 sequence (P15924 178-627 S442F): T1 sequence (P15924 178-627 R451G) with S265F, G274R
Method: as §1

[4] = target: T4, sDSP (DSP178–627) (Homo sapiens, UniProt P15924); set-up: FITC-sDSP degradation by calpain (1:20), fluorescence polarization after 60 min, per cent of calpain-only control; conditions: degradation rate of DSP WT by calpain; read-out: % of control remaining
T4 construct: gene DSP; N-terminal spectrin repeat/SH3 fragment, residues 178-627; pGEX-1 GST fusion cut with thrombin, E. coli BL21(DE3); fluorescein-5-maleimide label on exposed cysteines (C405, C524)
T4 sequence (P15924 178-627): T1 sequence (P15924 178-627 R451G) with G274R
Method: as §1

[5] = target: T3, sDSP (DSP178–627); set-up: FITC-sDSP S442F degradation by trypsin (1:50), fluorescence polarization after 60 min, per cent of protease-only control; conditions: degradation rate of DSP S442F by trypsin; read-out: % of control remaining
Method: Fluorescence Polarization (FP) assays were conducted in […] format using a BioTek Synergy H4 plate reader with polarization capacity (Agilent; Savage, MD, USA). All samples were run at 25 °C using PBS pH 7.4, 1 mM DTT, 10 mM CaCl2, 5% DMSO, and […] FITC- DSP178–627, with 500 μM of each drug. Trypsin, chymotrypsin, or calpain at either 1:50, 1:50, or 1:20 concentration was added directly before data collection with an average void time of 2 min. Control experiments in each plate were conducted in triplicate and consisted of DSP178–627 + DMSO + protease as a positive control and DSP178–627 + DMSO + [compound left out] + protease as a negative control. Only plates that had functional positive and negative controls were used in data analysis. Samples were excited at 485 nm, and polarization was monitored at 528 nm. Data were collected at 5 min increments for 1–3 h. A mutation that partially occludes the DSP calpain cleavage site rescues DSP protein levels. We next assessed whether protease-dependent cleavage can also be blocked by small molecules. We screened 2496 FDA-approved drugs for their ability to prevent trypsin-dependent cleavage of sDSP S442F in our FP assay (Figure 3A). […] No change in fluorescence polarization after an hour is indicative of 0% protein degradation rate, as occurs in the [compound left out] positive control. […] (A) sDSP S442F degradation in the presence of trypsin plus 2496 compounds from the Cayman chemical “FDA library”. A degradation rate of 100% indicates the same desmoplakin degradation rate with and without the addition of 500 μM drug while a 0% rate indicates no degradation, as judged by fluorescent polarization values after 1 h. A trypsin-only control and a trypsin + [compound left out] control is indicated. Protection (red lines) was arbitrarily set between 33% and −10%. […] (B) Example of how the data in A was generated.

T2 sequence (P15924 whole entry S507F, the tested form may be a part): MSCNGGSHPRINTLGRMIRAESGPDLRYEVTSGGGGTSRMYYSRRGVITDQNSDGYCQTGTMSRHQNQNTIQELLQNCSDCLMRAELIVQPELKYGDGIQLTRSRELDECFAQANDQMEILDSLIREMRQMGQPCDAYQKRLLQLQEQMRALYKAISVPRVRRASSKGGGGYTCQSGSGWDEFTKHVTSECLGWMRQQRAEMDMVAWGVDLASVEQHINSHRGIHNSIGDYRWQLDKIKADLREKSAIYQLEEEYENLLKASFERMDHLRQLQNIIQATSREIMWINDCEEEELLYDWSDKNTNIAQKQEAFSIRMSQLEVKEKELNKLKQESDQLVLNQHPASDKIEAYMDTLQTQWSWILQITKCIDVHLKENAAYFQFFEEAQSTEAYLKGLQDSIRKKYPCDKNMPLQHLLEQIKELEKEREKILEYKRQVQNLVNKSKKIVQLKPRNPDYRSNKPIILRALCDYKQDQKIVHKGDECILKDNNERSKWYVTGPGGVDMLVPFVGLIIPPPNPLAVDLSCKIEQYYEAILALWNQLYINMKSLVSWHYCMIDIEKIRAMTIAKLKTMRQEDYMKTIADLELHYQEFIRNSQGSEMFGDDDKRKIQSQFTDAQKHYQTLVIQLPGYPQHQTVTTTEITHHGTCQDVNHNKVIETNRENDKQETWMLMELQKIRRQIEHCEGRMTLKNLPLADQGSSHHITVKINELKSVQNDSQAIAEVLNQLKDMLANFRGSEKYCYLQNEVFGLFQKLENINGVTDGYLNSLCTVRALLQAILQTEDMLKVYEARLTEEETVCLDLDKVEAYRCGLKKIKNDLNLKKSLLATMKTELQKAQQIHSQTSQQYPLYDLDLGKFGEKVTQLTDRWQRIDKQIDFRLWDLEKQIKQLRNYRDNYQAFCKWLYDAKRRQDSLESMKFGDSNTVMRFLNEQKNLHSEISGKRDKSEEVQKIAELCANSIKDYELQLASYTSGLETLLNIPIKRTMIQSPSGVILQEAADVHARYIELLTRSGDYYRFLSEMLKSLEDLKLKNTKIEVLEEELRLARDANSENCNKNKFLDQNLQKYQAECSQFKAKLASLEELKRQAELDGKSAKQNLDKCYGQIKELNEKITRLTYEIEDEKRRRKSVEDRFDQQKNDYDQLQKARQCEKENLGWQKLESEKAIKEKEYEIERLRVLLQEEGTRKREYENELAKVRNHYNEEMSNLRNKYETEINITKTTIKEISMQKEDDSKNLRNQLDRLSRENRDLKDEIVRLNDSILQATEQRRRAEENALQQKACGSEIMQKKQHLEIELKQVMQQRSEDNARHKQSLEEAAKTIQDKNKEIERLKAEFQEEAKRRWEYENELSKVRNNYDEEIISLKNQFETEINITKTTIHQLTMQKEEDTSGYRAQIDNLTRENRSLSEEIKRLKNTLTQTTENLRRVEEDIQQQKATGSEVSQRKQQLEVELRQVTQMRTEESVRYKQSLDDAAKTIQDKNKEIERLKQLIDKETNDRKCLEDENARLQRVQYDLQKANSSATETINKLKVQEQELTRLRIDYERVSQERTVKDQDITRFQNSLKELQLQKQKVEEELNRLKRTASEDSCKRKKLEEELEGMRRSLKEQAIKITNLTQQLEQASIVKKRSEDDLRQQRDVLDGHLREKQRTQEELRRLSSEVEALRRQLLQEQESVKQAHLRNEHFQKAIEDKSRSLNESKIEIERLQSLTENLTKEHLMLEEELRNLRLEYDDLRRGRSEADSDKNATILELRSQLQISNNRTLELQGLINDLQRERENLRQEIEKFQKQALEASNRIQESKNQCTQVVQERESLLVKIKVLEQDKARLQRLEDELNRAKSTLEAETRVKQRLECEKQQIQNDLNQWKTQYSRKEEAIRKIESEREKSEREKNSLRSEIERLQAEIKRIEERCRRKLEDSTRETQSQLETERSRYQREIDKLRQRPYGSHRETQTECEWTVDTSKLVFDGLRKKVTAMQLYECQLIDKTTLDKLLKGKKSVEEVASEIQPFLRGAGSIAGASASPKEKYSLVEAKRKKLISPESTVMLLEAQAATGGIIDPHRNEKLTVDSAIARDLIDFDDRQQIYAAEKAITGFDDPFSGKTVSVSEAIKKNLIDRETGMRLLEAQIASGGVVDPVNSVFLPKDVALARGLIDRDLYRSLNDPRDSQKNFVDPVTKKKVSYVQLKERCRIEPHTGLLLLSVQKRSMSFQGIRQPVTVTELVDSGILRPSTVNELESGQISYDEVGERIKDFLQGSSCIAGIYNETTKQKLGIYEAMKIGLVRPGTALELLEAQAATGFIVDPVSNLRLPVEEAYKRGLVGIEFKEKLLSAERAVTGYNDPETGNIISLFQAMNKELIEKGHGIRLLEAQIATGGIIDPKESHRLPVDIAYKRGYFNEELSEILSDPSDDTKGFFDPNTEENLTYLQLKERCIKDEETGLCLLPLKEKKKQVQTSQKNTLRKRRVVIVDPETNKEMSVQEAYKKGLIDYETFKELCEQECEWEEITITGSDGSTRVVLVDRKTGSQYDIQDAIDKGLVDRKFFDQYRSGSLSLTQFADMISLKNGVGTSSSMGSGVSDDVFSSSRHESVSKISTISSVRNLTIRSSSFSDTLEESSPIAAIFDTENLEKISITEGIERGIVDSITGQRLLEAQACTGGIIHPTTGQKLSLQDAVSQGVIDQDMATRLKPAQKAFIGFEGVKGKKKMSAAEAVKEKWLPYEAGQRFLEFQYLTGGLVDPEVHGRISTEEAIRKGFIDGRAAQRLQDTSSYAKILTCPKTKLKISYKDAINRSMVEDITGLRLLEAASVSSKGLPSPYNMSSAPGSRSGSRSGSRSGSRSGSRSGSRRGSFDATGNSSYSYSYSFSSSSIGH

SMILES | remaining activity at 500 µM [1] [%] | remaining activity at 500 µM [2] [%] | remaining activity at 500 µM [3] [%] | remaining activity at 500 µM [4] [%] | remaining activity at 500 µM [5] [%]
CC/C=C\C/C=C\C/C=C\C/C=C\C/C=C\C/C=C\CCC(=O)O [Docosahexaenoic Acid] | 118 | 104 | -19 | -12 | 32
CCCCCCCCc1ccc(CCC(N)(CO)CO)cc1 [Fingolimod] | -13 | 32 | 70 | 35 | -1
Cn1cc(-c2ccc(F)c(C(F)(F)F)c2)nc1C1CCN(c2ncnc3[nH]ncc23)CC1 [LY2584702] | 15 | 84 | -40 | 67 | 18
O=C(NC1CCN(CCCCC2(C(=O)NCC(F)(F)F)c3ccccc3-c3ccccc32)CC1)c1ccccc1-c1ccc(C(F)(F)F)cc1 [Lomitapide] | 40 | 4 | 62 | 118 | 32
CCN(CC)CC#CCOC(=O)C(O)(c1ccccc1)C1CCCCC1 (stereo not shown) [Oxybutynin chloride] | 31 | 77 | -5 | 91 | 24
Fc1ccc([C@@H]2CCNC[C@H]2COc2ccc3c(c2)OCO3)cc1 [Paraxetine] | 26 | 133 | -3 | -8 | 20
CCCCCCCCCCCCOS(=O)(=O)O [SDS] | -20 | -30 | 21 | 24 | 18
CCCCCCCCCCCCCCCC(=O)NCCO [palmitoylethanolamide] | 8 | 3 | -3 | 22 | 26

The next lines start with the values.

remaining activity at 500 µM [1] [%] | remaining activity at 500 µM [2] [%] | remaining activity at 500 µM [3] [%] | remaining activity at 500 µM [4] [%] | remaining activity at 500 µM [5] [%] | SMILES
39 | 4 | 84 | 81 | 26 | C=C(c1ccc(C(=O)O)cc1)c1cc2c(cc1C)C(C)(C)CCC2(C)C [Bexarotene]
32 | 20 | 86 | 54 | 20 | NC1(Cc2ccc(Cl)cc2)CCN(c2ncnc3[nH]ccc23)CC1 [CCT128930]
30 | 0 | 73 | 84 | 18 | COc1ccc(-c2cc(=O)c3c(O)cc(O)cc3o2)cc1O [Diosmetin]
20 | 25 | 0 | 143 | 23 | CCCCc1oc2ccc(NS(C)(=O)=O)cc2c1C(=O)c1ccc(OCCCN(CCCC)CCCC)cc1 [Dronedarone HCl]
34 | 24 | 23 | 35 | 32 | CNC(=O)c1c(F)cccc1Nc1nc(Nc2cc3c(cc2OC)CCN3C(=O)CN(C)C)nc2[nH]ccc12 [GSK1838705A]
4 | 108 | 62 | -6 | -3 | Cc1ccc(NC(=O)c2ccc(CN3CCN(C)CC3)cc2)cc1Nc1nccc(-c2cccnc2)n1 [Imatinib]
-41 | 107 | 101 | -8 | 1 | CN1CCN(C2=Nc3ccccc3Oc3ccc(Cl)cc32)CC1 [Loxipine Succinate]
38 | 34 | 87 | 48 | 31 | CC(=O)O[C@H]1C(=O)[C@@]2(C)[C@H]([C@H](OC(=O)c3ccccc3)[C@]3(O)C[C@H](OC(=O)[C@H](O)[C@@H](NC(=O)c4ccccc4)c4ccccc4)C(C)=C1C3(C)C)[C@]1(OC(C)=O)CO[C@@H]1C[C@@H]2O [Taxol]
33 | 31 | 26 | 30 | 32 | CCCCc1ncc(/C=C(\Cc2cccs2)C(=O)O)n1Cc1ccc(C(=O)O)cc1 [eprosarten mesylate]
